Marks after values point to notes of the source that are not given here. Peptide text beside a SMILES is read from it. * marks the point of attachment. X65 = O=C1C=CC(=O)N1c1cccc(CCCCCCCCCCCCC(=O)*)c1; X54 = O=C1C=CC(=O)N1c1cccc(CCCCCCC(=O)*)c1; X71 = O=C1C=CC(=O)N1c1cccc(CCCCCC(=O)*)c1; X46 = O=C1C=CC(=O)N1c1cccc(CCCCC(=O)*)c1; X61 = O=C1C=CC(=O)N1c1cccc(CCCC(=O)*)c1
Legend:
[1] = system: retinal neovascularization (OIR model); assay: Retinal vessels in OIR mice; format: in vivo, C57/B16 mice; conditions: for Area of neovascular plexus (mm^2): dose 0.05 μM in the vitreous chamber on day 13, retinal vessels evaluated on day 17; for Inhibition rate (%): dose 0.05 μM in the vitreous chamber on day 13, retinal vessels evaluated on day 17, vs negative control
From the text: Establishment of an OIR model: Young mice and their mothers were exposed in a 75% hyperoxic environment from day 7 to day 12 after the birth of C57/B16 mice, which caused capillaries in their central retina to disappear rapidly. The mice were returned to the indoor air on day 12, retinal vessels exposed to hyperoxia quickly disappeared, causing extensive abnormal neoangiogenesis, and the central part of the retina remained largely avascular for a long time. After the blood vessels disappeared completely, the mice were injected with normal saline (a negative group), X1-X12, X13-X44, X45-X90 in the vitreous chamber on day 13 respectively, and retinal vessels were evaluated on day 17 ([…] of Texas red labeled tomato agglutinin was injected into the left ventricle to mark unclosed vessels and circulated for 5 min).

[2] = system: retinal vascular endothelial nuclei; assay: Neovascularization in a rat model of premature retinopathy; format: in vivo, rats; conditions: dose 0.05 μM in the vitreous chamber from day 7 of modeling for one week; counted on day 14; oxygen-induced neonatal rats
Method: Using a fluctuating oxygen-induced animal model, newborn rats born naturally on the same day (within 12 h) were randomly divide into three groups: an oxygen model group, an oxygen treatment group and a normal control group. The oxygen model was further divided into three sub-group model groups, and the sub-group model groups and the treatment group were all placed in a semi-closed oxygen chamber made of organic glass; medical oxygen was introduced into the chamber, and the concentration was adjusted to 80%±2% by an oxygen meter; nitrogen was introduced into the oxygen chamber after 24 h, and the oxygen concentration was adjusted to 10%±2% rapidly and maintained for 24 h. This was repeated to keep the oxygen concentration in the oxygen chamber alternating between 80% and 10% every 24 h, the oxygen concentration was maintained for 7 d, and then the rats were fed in the air. The oxygen concentration was monitored 8 times a day, and the ambient temperature in the chamber was controlled at 23° C.±2° C. Bedding was replaced, feed was added, and water and mother rats were replaced once. The normal control group was placed in the animal room feeding environment. […] The oxygen treatment group was divided into three subgroups. On day 7 of modeling, X1-[…], […]-[…] and […]-X90 were injected in the vitreous chamber respectively, and the oxygen model group and the control group were only given normal saline for one week. On day 14, after the rats were anesthetized by diethyl ether and killed, eyeballs were extracted and fixed in 40 g/L paraformaldehyde solution for 24 h. Gradient dehydration by alcohol was performed, and the eyeballs were processed by xylene to be transparent. After waxing, the eyeballs were sectioned continuously to a thickness of 4μm, and the periphery of the optic disc should be avoided as much as possible. The sections were parallel to the sagittal plane from cornea to the optic disc. Ten sections of each eyeball were randomly taken and stained with hematoxylin eosin, the number of vascular endothelial nuclei that broke through the inner limiting membrane of the retina (only the number of vascular endothelial nuclei closely related to the inner limiting membrane were counted) was counted, and statistics of the average number of cells per section per eyeball was performed. Results: In the control group, there were no vascular endothelial nuclei that broke through the inner limiting membrane of the retina and grew into vitreous body, or the vascular endothelial nuclei were occasionally found in only a few sections. In the model group, there were many vascular endothelial nuclei that broke through the inner limiting membrane of the retina, some appeared alone, and some appeared in clusters. At the same time, on some sections, these vascular endothelial nuclei were also found adjacent to deep retinal vessels, confirming that they originated from the retina rather than the vitreous body or other ocular tissues. In the treatment group, only a few vascular endothelial nuclei that broke through the inner limiting membrane of retina could be seen in the sections.

[3] = system: corneal neovascularization; assay: Corneal neovascularization induced by alkali burn in BALB/c mice; format: in vivo; design: Inhibition rate (corneal neovascularization): concentration or dose not given beside the values; conditions: day 14 after alkali burn, vitreous injection once a day for 1 week
[4] = system: IL-1β production by mouse peritoneal macrophages; assay: IL-1β production by mouse peritoneal macrophages (ELISA); format: cell-based; conditions: for Inhibition rate: IL-1β production, vs model group; for IL-1β: mouse peritoneal macrophages, 48 h, ELISA
Procedure, shortened: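 Peptides tested at three concentration levels on adherent peritoneal macrophages harvested from mice 3 days after i.p. 6% starch broth, plated at 2×10^6 cells/mL. After 48 h culture with Dex as reference, IL-1β in supernatants was quantified.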

[5] = system: human retinal capillary endothelial cells (HRCECs); assay: MTT proliferation inhibition on HRCECs; format: cell-based; conditions: 48 h; for A570 nm-A630 nm: mean±SD
Procedure, shortened: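 HRCECs seeded at 3.0×10^4 cells/mL, adhered overnight, then exposed to polypeptide for 48 h at 37 °C, 5% CO2. MTT added 4 h, formazan dissolved in DMSO, absorbance 570/630 nm; PIR (%) = 1 − treated/negative control, mean±SD of three independent runs.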

SMILES | Area of neovascular plexus (mm^2) [1] [mm^2] | Inhibition rate (%) [1] | Nuclei count (retinal vascular endothelial nuclei, average per section per eyeball) [2] | Inhibition rate (corneal neovascularization) [3] [%] | MVD (corneal microvessel density) [3] | Inhibition rate ([4]; dose 0.05 μM) [%] | IL-1β ([4]; dose 0.05 μM) [pg/mL] | Inhibition rate ([4]; dose 0.1 μM) [%] | IL-1β ([4]; dose 0.1 μM) [pg/mL] | Inhibition rate ([4]; dose 0.2 μM) [%] | IL-1β ([4]; dose 0.2 μM) [pg/mL] | Inhibition rate (%) ([5]; dose 0.05 μM) [%*] | A570 nm-A630 nm ([5]; dose 0.05 μM) | Inhibition rate (%) ([5]; dose 0.1 μM) [%**] | A570 nm-A630 nm ([5]; dose 0.1 μM) | Inhibition rate (%) ([5]; dose 0.2 μM) [%*] | A570 nm-A630 nm ([5]; dose 0.2 μM)
C[C@H](NC(=O)CNC(=O)[C@H](CCCNC(=N)N)NC(=O)CCCCCCc1cccc(N2C(=O)C=CC2=O)c1)C(=O)N[C@@H](CC(=O)O)C(=O)N[C@@H](CCCNC(=N)N)C(=O)N[C@@H](C)C(=O)NCC(=O)NCC(=O)NCC(=O)NCC(=O)N[C@@H](CCCNC(=N)N)C(=O)NCC(=O)N[C@@H](CC(=O)O)C(=O)O [X30] (X54-RGADRAGGGGRGD-OH) | 0.118 ± 0.012 | 44.34%* | 8.256 ± 3.403 | 47.13 | 35.55 ± 5.717 | 28.30 | 674.82 ± 10.45 | 33.96 | 621.53 ± 19.69 | 37.33 | 589.79 ± 19.66 | 42.46 | 0.7605 ± 0.00513 | 60.14 | 0.5268 ± 0.06831 | 65.82 | 0.4517 ± 0.03378
C[C@H](NC(=O)CNC(=O)[C@H](CCCNC(=N)N)NC(=O)CCCc1cccc(N2C(=O)C=CC2=O)c1)C(=O)N[C@@H](CC(=O)O)C(=O)N[C@@H](CCCNC(=N)N)C(=O)N[C@@H](C)C(=O)NCC(=O)NCC(=O)NCC(=O)NCC(=O)N[C@@H](CCCNC(=N)N)C(=O)NCC(=O)N[C@@H](CC(=O)O)C(=O)O [X27] (X61-RGADRAGGGGRGD-OH) | 0.106 ± 0.002 | 50.00%** | 8.358 ± 1.328 | 43.93 | 37.70 ± 3.805 | 25.91 | 697.32 ± 17.18 | 30.97 | 649.68 ± 18.74 | 33.62 | 624.72 ± 14.38 | 49.84 | 0.6629 ± 0.02448 | 56.47 | 0.5753 ± 0.02814 | 56.64 | 0.5731 ± 0.04774
C[C@H](NC(=O)CNC(=O)[C@H](CCCNC(=N)N)NC(=O)CCCCCCCCCCCCc1cccc(N2C(=O)C=CC2=O)c1)C(=O)N[C@@H](CC(=O)O)C(=O)N[C@@H](CCCNC(=N)N)C(=O)N[C@@H](C)C(=O)NCC(=O)NCC(=O)NCC(=O)NCC(=O)N[C@@H](CCCNC(=N)N)C(=O)NCC(=O)N[C@@H](CC(=O)O)C(=O)O [X36] (X65-RGADRAGGGGRGD-OH) | 0.084 ± 0.009 | 60.38%** | 8.726 ± 3.273 | 45.52 | 36.63 ± 5.284 | 17.18 | 779.49 ± 11.56 | 34.09 | 620.34 ± 15.26 | 34.16 | 619.62 ± 11.89 | 55.25 | 0.5915 ± 0.05135 | 60.38 | 0.5237 ± 0.03194 | 64.71 | 0.4664 ± 0.03733
C[C@H](NC(=O)CNC(=O)[C@H](CCCNC(=N)N)NC(=O)CCCCCc1cccc(N2C(=O)C=CC2=O)c1)C(=O)N[C@@H](CC(=O)O)C(=O)N[C@@H](CCCNC(=N)N)C(=O)N[C@@H](C)C(=O)NCC(=O)NCC(=O)NCC(=O)NCC(=O)N[C@@H](CCCNC(=N)N)C(=O)NCC(=O)N[C@@H](CC(=O)O)C(=O)O [X29] (X71-RGADRAGGGGRGD-OH) | 0.109 ± 0.012 | 48.58%* | 9.533 ± 2.225 | 54.98 | 30.27 ± 4.918 | 16.20 | 788.74 ± 15.39 | 21.75 | 736.46 ± 14.72 | 40.73 | 557.81 ± 12.11 | 52.67 | 0.6256 ± 0.09549 | 58.02 | 0.5549 ± 0.02011 | 61.03 | 0.5151 ± 0.01135
C[C@H](NC(=O)CNC(=O)[C@H](CCCNC(=N)N)NC(=O)CCCCc1cccc(N2C(=O)C=CC2=O)c1)C(=O)N[C@@H](CC(=O)O)C(=O)N[C@@H](CCCNC(=N)N)C(=O)N[C@@H](C)C(=O)NCC(=O)NCC(=O)NCC(=O)NCC(=O)N[C@@H](CCCNC(=N)N)C(=O)NCC(=O)N[C@@H](CC(=O)O)C(=O)O [X28] (X46-RGADRAGGGGRGD-OH) | 0.088 ± 0.004 | 58.49%** | 9.261 ± 3.879 | 46.59 | 35.91 ± 4.891 | 15.78 | 792.64 ± 11.74 | 31.90 | 640.89 ± 14.7 | 32.28 | 637.34 ± 10.85 | 48.58 | 0.6796 ± 0.03488 | 52.72 | 0.6249 ± 0.09489 | 69.71 | 0.4004 ± 0.02963

From patent US20200270309A1, “MALEIMIDE GROUP-MODIFIED ANGIOGENESIS INHIBITOR HM-1 AND USE THEREOF” (NANJING ANJI BIOLOGICAL TECHNOLOGY CO., LTD, priority 2017, published 2020)
